Data from ChEMBL document CHEMBL1127284, “The synthesis of 2,3-dihydro-4(1H)-quinazolinone angiotensin II receptor antagonists” (Bioorg Med Chem Lett, 1994).

These compounds were tested against T1, Angiotensin II receptor (Rattus norvegicus, UniProt P29089+P25095+P35351) (assay: Concentration required for 50% inhibition of binding against Angiotensin II receptor in the rat adrenal cortex tissue). Conditions: not given.
T1 sequence (P29089 whole entry): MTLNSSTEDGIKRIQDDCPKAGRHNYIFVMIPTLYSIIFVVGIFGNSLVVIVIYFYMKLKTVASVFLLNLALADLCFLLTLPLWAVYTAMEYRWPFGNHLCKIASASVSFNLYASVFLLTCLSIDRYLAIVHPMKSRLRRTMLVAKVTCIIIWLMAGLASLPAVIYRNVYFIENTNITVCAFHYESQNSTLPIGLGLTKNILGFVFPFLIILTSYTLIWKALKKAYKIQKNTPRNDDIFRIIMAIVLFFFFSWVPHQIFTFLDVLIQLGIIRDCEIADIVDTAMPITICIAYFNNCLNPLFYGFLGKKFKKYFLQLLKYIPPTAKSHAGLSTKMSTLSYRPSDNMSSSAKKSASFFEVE
T1 sequence (P25095 whole entry): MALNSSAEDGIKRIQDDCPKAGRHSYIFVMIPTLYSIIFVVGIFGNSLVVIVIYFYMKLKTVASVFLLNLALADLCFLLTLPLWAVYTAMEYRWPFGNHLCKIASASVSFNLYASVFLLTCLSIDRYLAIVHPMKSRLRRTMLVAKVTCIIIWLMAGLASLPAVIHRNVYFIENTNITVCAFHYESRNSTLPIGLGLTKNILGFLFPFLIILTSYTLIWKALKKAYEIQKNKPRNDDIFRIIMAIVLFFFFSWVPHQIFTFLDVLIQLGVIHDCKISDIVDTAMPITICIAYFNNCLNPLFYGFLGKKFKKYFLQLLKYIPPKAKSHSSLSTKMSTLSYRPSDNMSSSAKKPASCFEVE
T1 sequence (P35351 whole entry): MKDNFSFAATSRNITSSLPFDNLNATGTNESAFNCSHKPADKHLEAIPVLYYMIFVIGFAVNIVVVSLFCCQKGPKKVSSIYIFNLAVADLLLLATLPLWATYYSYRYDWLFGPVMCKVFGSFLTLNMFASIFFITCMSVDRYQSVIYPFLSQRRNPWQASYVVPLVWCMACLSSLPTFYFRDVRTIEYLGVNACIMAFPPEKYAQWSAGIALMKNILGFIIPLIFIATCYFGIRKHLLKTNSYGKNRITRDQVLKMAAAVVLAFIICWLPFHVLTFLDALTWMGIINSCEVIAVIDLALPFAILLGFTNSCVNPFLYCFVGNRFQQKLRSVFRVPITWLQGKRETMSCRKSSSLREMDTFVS
Format: tissue-based

| IC50 [µM] | Compound |
| --- | --- |
| 14 | CCCCC1Nc2ccccc2C(=O)N1Cc1ccc(-c2ccccc2-c2nn[nH]n2)cc1 (stereo not given) |
| 90 | CC1Nc2ccccc2C(=O)N1Cc1ccc(-c2ccccc2-c2nn[nH]n2)cc1 (stereo not given) |
| 0.65 | CCCCC1N(Cc2ccc(-c3ccccc3-c3nn[nH]n3)cc2)C(=O)c2cc(C(C)C)ccc2N1C (stereo not given) |
| 2.7 | CCCCC1Nc2ccc(C(C)(C)OC)cc2C(=O)N1Cc1ccc(-c2ccccc2-c2nn[nH]n2)cc1 (stereo not given) |
| 0.09 | CCCCC1Nc2ccc(C(C)C)cc2C(=O)N1Cc1ccc(-c2ccccc2-c2nn[nH]n2)cc1 (stereo not given) |
| 4.1 | CCCCC1Nc2ccc(C(=O)OC)cc2C(=O)N1Cc1ccc(-c2ccccc2-c2nn[nH]n2)cc1 (stereo not given) |
| 2 | CCCCC1N(Cc2ccc(-c3ccccc3-c3nn[nH]n3)cc2)C(=O)c2cc(C(C)(C)OC)ccc2N1C (stereo not given) |
| 1.1 | CCCCC1N(Cc2ccc(-c3ccccc3-c3nn[nH]n3)cc2)C(=O)c2ccccc2N1C (stereo not given) |
| 3.7 | CCCCC1Nc2ccc(Cc3ccccc3)cc2C(=O)N1Cc1ccc(-c2ccccc2-c2nn[nH]n2)cc1 (stereo not given) |
| 0.54 | CCCC1Nc2ccccc2C(=O)N1Cc1ccc(-c2ccccc2-c2nn[nH]n2)cc1 (stereo not given) |
| 0.37 | CCCCC1Nc2ccc(CC)cc2C(=O)N1Cc1ccc(-c2ccccc2-c2nn[nH]n2)cc1 (stereo not given) |
| 100 | CCCC1N(Cc2ccc(-c3ccccc3-c3nn[nH]n3)cc2)C(=O)c2ccccc2N1Cc1ccccc1 (stereo not given) |
| 45 | CCC1Nc2ccc(C(C)C)cc2C(=O)N1Cc1ccc(-c2ccccc2-c2nn[nH]n2)cc1 (stereo not given) |
| 20 | CCC1Nc2ccc(C)cc2C(=O)N1Cc1ccc(-c2ccccc2-c2nn[nH]n2)cc1 (stereo not given) |
| 13 | CCCCC1(CCCC)Nc2ccccc2C(=O)N1Cc1ccc(-c2ccccc2-c2nn[nH]n2)cc1 |
| 0.05 | CCCC1N(Cc2ccc(-c3ccccc3-c3nn[nH]n3)cc2)C(=O)c2ccccc2N1C (stereo not given) |
| 27 | CCC1Nc2ccccc2C(=O)N1Cc1ccc(-c2ccccc2-c2nn[nH]n2)cc1 (stereo not given) |
| 12 | CCCC1Nc2ccc(C(C)C)cc2C(=O)N1Cc1ccc(-c2ccccc2-c2nn[nH]n2)cc1 (stereo not given) |
| 7.5 | CCCC1N(Cc2ccc(-c3ccccc3-c3nn[nH]n3)cc2)C(=O)c2ccccc2N1CC (stereo not given) |

Same assay, conditions: read-out: IC50

| IC50 [µM] | Compound |
| --- | --- |
| 0.006 | CCCCc1nc2ccc(C(C)(C)OC)cc2c(=O)n1Cc1ccc(-c2ccccc2-c2nn[nH]n2)cc1 [CL-329167] |
